Reference: patent publication US20080171792A1, “Use of highly concentrated formulations of 4-phenylbutyrate for treatment of certain disorders” (priority 2006, published 2008)

Experiments:
[1] = high dosage of about 20 g a day; cited from earlier work
[2] = Storage of the concentrated aqueous solution at low temperature (freezing / precipitation); type: physicochemical
Description: Therefore, due to likely micelle formation of sodium 4-phenylbutyrate (which we term the self-associated polymeric form), the high concentration of about 500 mg/mL can be achieved in solution. […] This novel invention thus provides a dosage form better able to help the patients presently administered with a high volume dosage of sodium 4-phenylbutyrate. This invention is not intended to be limited by this discussion of micellar phases, or the presence or absence of other high concentration phases (such as sponge or L3, worm-like micelles, sheets and other laminar phases) that may be formed depending on the particular processing conditions and/or materials used. In the follow description the term “solution” is used without regard to whether a micellar phase is present. […] The mixture was cooled to 25° C. and 0.5 g of sodium benzoate was added and mixed well. […] Further cooling of this solution to about −4° C. caused precipitation.

[3] = Solubility / achievable concentration of sodium 4-phenylbutyrate in water; type: physicochemical; settings: supersaturated solution in aqueous medium
Description: This art-reported solubility is believed to pertain to the maximum solubility of the monomeric form of sodium 4-phenylbutyrate in water. As described in more detail below, a process has been identified of preparing a highly concentrated solution of sodium 4-phenylbutyrate, having a concentration 500 mg/mL in water by dissolving 5 g of sodium 4-phenylbutyrate in about 3.5 mL water to yield a solution volume of about 10 mL. The temperature can be room temperature (25° C.) or an elevated temperature, preferably in the range of up to about 80° C. The solution can be made at a higher temperature and then cooled to room temperature without precipitating resulting.

[4] = test system: histone deacetylase (HDAC); settings: cited from earlier work

## O=C([O-])CCCc1ccccc1.[Na+] [sodium 4-phenylbutyrate]
[1]
  tolerability: well tolerated
[2]; 600 mg/mL solution at 0° C.
  freezing of the solution: does not freeze
[2]; about 500 mg/mL solution
  temperature at which precipitation is observed on further cooling: −40 °C
[2]; about 500 mg/mL solution, 0° C. for two days
  freezing or precipitation upon storage: did not freeze or precipitate out
[3]
  maximum drug concentration achieved in the formulation: about 700 mg/mL
[4]
  inhibition of histone deacetylase (HDAC): efficient inhibitor
